The results in this text go back to PMC10013830 (Molecular Plant Pathology, 2023).

The structures appear in SMILES notation. pKd: −log10 of the molar value. Entries after “also recorded” stand apart in the source; their conditions may differ.

For orientation: pKd means −log10 of the Kd, conventionally taken in molar units.

For assay [1], the system named is pip promoter (Xcc 8008, pip-GUS reporter). In kind it is cell-based, Xanthomonas campestris pv. campestris.
Assay [2] deals with XccR binding to the luxXc box. As to the kind of experiment: EMSA: effect of sugars on binding of XccR to the luxXc box. Particulars: XccR-MBP, increasing sugar concentrations (glucose 0.005-5 μM). (A gel shift assay detects complexes by their altered migration in electrophoresis.)
For assay [3], the target named is T1, XccR-MBP (Xanthomonas campestris pv. campestris, UniProt B0RQF7).
T1 sequence (B0RQF7 1-272): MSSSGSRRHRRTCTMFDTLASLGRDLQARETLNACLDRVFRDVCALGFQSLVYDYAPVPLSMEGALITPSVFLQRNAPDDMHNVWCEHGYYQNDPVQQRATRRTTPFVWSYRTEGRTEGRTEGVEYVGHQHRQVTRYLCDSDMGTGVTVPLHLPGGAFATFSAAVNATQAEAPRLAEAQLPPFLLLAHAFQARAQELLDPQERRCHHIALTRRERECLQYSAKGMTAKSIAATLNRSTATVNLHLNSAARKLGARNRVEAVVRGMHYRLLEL
As to the kind of experiment: Isothermal titration calorimetry of XccR-MBP with glucose. In kind it is binding. As to conditions: XccR-MBP 10 μM titrated with 100 μM glucose.

The target in assay [4] is T2, XccR-SUMO (Xanthomonas campestris pv. campestris, UniProt B0RQF7).
T2 sequence (B0RQF7 1-272): T1 sequence (B0RQF7 1-272)
As to the kind of experiment: MST binding of glucose to XccR-SUMO.

In assay [5] the target is T1, XccR-MBP. As to the kind of experiment: Microscale thermophoresis. (In general: In MST a laser heats a spot of the sample, and binding alters the fluorescence response.)
In assay [6] the target is T3, TraR (Agrobacterium tumefaciens, UniProt P33905).
T3 sequence (P33905 1-234): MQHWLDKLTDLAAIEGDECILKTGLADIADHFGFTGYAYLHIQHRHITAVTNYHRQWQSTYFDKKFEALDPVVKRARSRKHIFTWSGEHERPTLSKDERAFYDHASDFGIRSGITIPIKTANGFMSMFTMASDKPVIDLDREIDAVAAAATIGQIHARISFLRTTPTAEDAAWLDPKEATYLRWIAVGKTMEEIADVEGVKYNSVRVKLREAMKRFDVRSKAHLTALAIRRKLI
As to the kind of experiment: MST TraR–glucose interaction. It counts as binding. As to conditions: Figure S7c.

For assay [7], the target named is T4, LasR (Pseudomonas aeruginosa, UniProt P25084).
T4 sequence (P25084 1-239): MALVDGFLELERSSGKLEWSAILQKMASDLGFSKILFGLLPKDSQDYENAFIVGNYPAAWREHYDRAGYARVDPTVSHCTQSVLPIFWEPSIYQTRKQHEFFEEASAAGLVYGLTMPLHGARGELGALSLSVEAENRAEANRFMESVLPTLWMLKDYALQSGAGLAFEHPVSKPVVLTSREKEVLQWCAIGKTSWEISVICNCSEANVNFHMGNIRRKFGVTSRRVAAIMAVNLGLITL
As to the kind of experiment: MST LasR–glucose interaction. Particulars: Figure S7d. It counts as binding.

Assay [8] deals with pip promoter (Xcc 8008 reporter strain). In kind it is in vivo, Xanthomonas campestris pv. campestris in Arabidopsis. As to conditions: Atsweet2‐3‐2 and Atsweet15‐4‐7 mutant plants, bacterial suspension supplemented with glucose before infection.

Turning to `O=CC[C@@H](O)[C@H](O)[C@H](O)CO` [2‐deoxyglucose, 2‐deoxy‐D‐glucose, reference compound], the “GUS activity driven by the pip promoter” value in assay [1] is reported as “promoted”. Moreover, the “Effect on binding of XccR to the luxXc box” value (shortened to “Effect on binding of XccR”) in assay [2] is given as “enhanced”.

Consider `O=C(CO)[C@@H](O)[C@H](O)[C@H](O)CO` [fructose], for which, in assay [2], the “Effect on binding of XccR” value is reported as “did not enhance”.

Consider `O=C[C@H](O)[C@@H](O)[C@H](O)[C@H](O)COP(=O)(O)O` [glucose 6‐phosphate, D‐glucose 6‐phosphate], for which the “Effect on binding of XccR” value in assay [2] was “did not enhance”.

Take `OC[C@H]1OC(O)[C@H](O)[C@@H](O)[C@@H]1O` (stereo partly shown) [glucose, D‐glucose]: in assay [3], the “Binding of XccR with glucose by ITC” value is listed as “supported by the ITC results”. Also, the pKd was 6.62 in assay [4] and 6.60 in assay [5]. Moreover, in assay [1], the “GUS activity driven by the pip promoter” value was “increase; also recorded: promoted”. Besides, the “Effect on binding of XccR” value in assay [2] is given as “enhanced”. Also, the “TraR–glucose interaction” value in assay [6] was “did not interact”. Also, the “LasR–glucose binding” value in assay [7] was “did not bind”. Moreover, the “pip promoter-driven GUS activity in planta” value in assay [8] is “restored to the wild‐type level”.

Regarding `OC[C@H]1O[C@@](CO)(O[C@H]2O[C@H](CO)[C@@H](O)[C@H](O)[C@H]2O)[C@@H](O)[C@@H]1O` [sucrose], in assay [2], the “Effect on binding of XccR” value was “did not enhance”.
